Patent US11279687B2, “Compounds and compositions for the inhibition of NAMPT” (Valo Health, Inc., priority 2010, dated 2022)
Where two headings read alike, the source gives them in different places.

How the values were obtained:
[1] = molecular target: NAMPT (Homo sapiens (Human), UniProt P43490); experiment: NAMPT biochemical inhibition assay (NMN quantified by mass spectrometry)
[2] = tested on: A2780 cells; experiment: In-vitro cell proliferation assay (SRB), A2780 cells; format: cell-based; details: A2780 cells, 72 hours, SRB, read-out: A2780 IC50;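 note: viable cell number read as SRB absorbance, background from media-only wells subtracted, IC50 interpolated from percent inhibition at two bracketing compound concentrations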
[3] = NAMPT biochemical inhibition, read-out: Biochem IC50

Chain of NAMPT (P43490 whole entry): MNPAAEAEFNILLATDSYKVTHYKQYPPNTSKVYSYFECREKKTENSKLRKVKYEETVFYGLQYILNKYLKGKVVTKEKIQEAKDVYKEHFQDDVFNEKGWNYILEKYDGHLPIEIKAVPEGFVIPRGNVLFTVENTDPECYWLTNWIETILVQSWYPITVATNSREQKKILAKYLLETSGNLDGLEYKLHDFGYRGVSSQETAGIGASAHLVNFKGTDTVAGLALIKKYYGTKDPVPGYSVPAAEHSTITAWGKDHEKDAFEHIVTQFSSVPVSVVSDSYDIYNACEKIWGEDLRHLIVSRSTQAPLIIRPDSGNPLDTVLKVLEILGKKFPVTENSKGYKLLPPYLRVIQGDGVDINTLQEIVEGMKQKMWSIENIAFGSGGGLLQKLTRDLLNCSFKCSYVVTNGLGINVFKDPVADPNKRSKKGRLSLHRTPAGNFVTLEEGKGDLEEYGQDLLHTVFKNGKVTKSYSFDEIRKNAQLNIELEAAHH

SMILES | IC50 [1, 3] [nM] | IC50 ([2]; Homo sapiens, A2780, 72 h) [nM] | IC50 [1] [nM] | IC50 [2] [nM]
O=C(NCc1cccnc1)Nc1ccc(S(=O)(=O)N2CCN(CC(=O)N3CCOCC3)CC2)cc1 [1-(4-{4-[2-(morpholin-4-yl)-2-oxoethyl]piperazine-1-sulfonyl}phenyl)-3-(pyridin-3-ylmethyl)urea] | 4 | 135 | – | –
O=C(NCc1cccnc1)Nc1ccc(S(=O)(=O)N2CCN(CC(=O)N3CCCCC3)CC2)cc1 [1-(4-{4-[2-oxo-2-(piperidin-1-yl)ethyl]piperazine-1-sulfonyl}phenyl)-3-(pyridin-3-ylmethyl)urea] | 9 | 21 | – | –
O=C(NCc1cccnc1)Nc1ccc(S(=O)(=O)N2CCN(CC(=O)N3CCCC3)CC2)cc1 [1-(4-{4-[2-oxo-2-(pyrrolidin-1-yl)ethyl]piperazine-1-sulfonyl}phenyl)-3-(pyridin-3-ylmethyl)urea] | 4 | 99 | – | –
O=C(NCc1cccnc1)Nc1ccc(S(=O)(=O)N2CCN(CCCN3CCOCC3)CC2)cc1 [1-(4-{4-[3-(morpholin-4-yl)propyl]piperazine-1-sulfonyl}phenyl)-3-(pyridin-3-ylmethyl)urea] | 3 | 24 | – | –
O=C(NCc1cccnc1)Nc1ccc(S(=O)(=O)N2CCC(CN3CCCC3=O)CC2)cc1 [1-(4-{4-[(2-oxopyrrolidin-1-yl)methyl]piperidine-1-sulfonyl}phenyl)-3-(pyridin-3-ylmethyl)urea] | 2 | 78 | – | –
O=C(NCc1cccnc1)Nc1ccc(S(=O)(=O)N2CCN(C(=O)c3ccco3)CC2)cc1 [1-(4-{4-[(furan-2-yl)carbonyl]piperazine-1-sulfonyl}phenyl)-3-(pyridin-3-ylmethyl)urea] | 4 | 168 | – | –
O=C(NCc1cccnc1)Nc1ccc(S(=O)(=O)N2C3CCCC2CC3)cc1 [1-(4-{8-azabicyclo[3.2.1]octane-8-sulfonyl}phenyl)-3-(pyridin-3-ylmethyl)urea] | – | 64 | 4 | –
O=C(NCc1cccnc1)Nc1ccc(S(=O)(=O)N2CCC3(CCCC3)CC2)cc1 [1-(4-{8-azaspiro[4.5]decane-8-sulfonyl}phenyl)-3-(pyridin-3-ylmethyl)urea] | 4 | 343 | – | –
O=C(NCc1cccnc1)Nc1ccc(S(=O)(=O)c2cccc3c2oc2ccccc23)cc1 [1-(4-{8-oxatricyclo[7.4.0.0^2,^7]trideca-1(9),2(7),3,5,10,12-hexaene-6-sulfonyl}phenyl)-3-(pyridin-3-ylmethyl)urea] | 2 | – | – | 3
O=C(NCc1cccnc1)Nc1ccc(S(=O)(=O)Nc2ccccc2N2CCOCC2)cc1 [1-(4-{[2-(morpholin-4-yl)phenyl]sulfamoyl}phenyl)-3-(pyridin-3-ylmethyl)urea] | 5 | 11 | – | –
O=C(NCc1cccnc1)Nc1ccc(S(=O)(=O)c2ccccc2CN2CCOCC2)cc1 [1-(4-{[2-(morpholin-4-ylmethyl)benzene]sulfonyl}phenyl)-3-(pyridin-3-ylmethyl)urea] | 3.6 | 7.9 | – | –
O=C(NCc1cccnc1)Nc1ccc(S(=O)(=O)Nc2ccccc2N2CCCCC2)cc1 [1-(4-{[2-(piperidin-1-yl)phenyl]sulfamoyl}phenyl)-3-(pyridin-3-ylmethyl)urea] | 4 | 18 | – | –
O=C(NCc1cccnc1)Nc1ccc(S(=O)(=O)c2cccc(-n3cccn3)c2)cc1 [1-(4-{[3-(1H-pyrazol-1-yl)benzene]sulfonyl}phenyl)-3-(pyridin-3-ylmethyl)urea] | 2.2 | 98 | – | –
O=C(NCc1cccnc1)Nc1ccc(S(=O)(=O)c2cccc(OCC3CC3)c2)cc1 [1-(4-{[3-(cyclopropylmethoxy)benzene]sulfonyl}phenyl)-3-(pyridin-3-ylmethyl)urea] | 8.6 | 100 to 1000 | – | –
O=C(NCc1cccnc1)Nc1ccc(S(=O)(=O)Nc2cccc(N3CCOCC3)c2)cc1 [1-(4-{[3-(morpholin-4-yl)phenyl]sulfamoyl}phenyl)-3-(pyridin-3-ylmethyl)urea] | 6 | 103 | – | –
O=C(NCc1cccnc1)Nc1ccc(S(=O)(=O)c2ccc(-n3cccn3)cc2)cc1 [1-(4-{[4-(1H-pyrazol-1-yl)benzene]sulfonyl}phenyl)-3-(pyridin-3-ylmethyl)urea] | 5.5 | 55 | – | –
O=C(NCc1cccnc1)Nc1ccc(S(=O)(=O)c2ccc(N3CCOCC3)cc2)cc1 [1-(4-{[4-(morpholin-4-yl)benzene]sulfonyl}phenyl)-3-(pyridin-3-ylmethyl)urea] | 1.8 | 14.7 | – | –
O=C(NCc1cccnc1)Nc1ccc(S(=O)(=O)Nc2ccc(N3CCOCC3)cc2)cc1 [1-(4-{[4-(morpholin-4-yl)phenyl]sulfamoyl}phenyl)-3-(pyridin-3-ylmethyl)urea] | 5 | 173 | – | –
O=C(NCc1cccnc1)Nc1ccc(S(=O)(=O)Nc2ccc(N3CCCCC3)cc2)cc1 [1-(4-{[4-(piperidin-1-yl)phenyl]sulfamoyl}phenyl)-3-(pyridin-3-ylmethyl)urea] | 4 | 54 | – | –
O=C(NCc1cccnc1)Nc1ccc(S(=O)(=O)Nc2ccccc2OC(F)(F)F)cc1 [1-(pyridin-3-ylmethyl)-3-(4-{[2-(trifluoromethoxy)phenyl]sulfamoyl}phenyl)urea] | 1.2 | 7 | – | –

SMILES | IC50 [1, 3] [nM] | IC50 ([2]; Homo sapiens, A2780, 72 h) [nM] | IC50 [1] [nM] | IC50 [2] [nM]
O=C(NCc1cccnc1)Nc1ccc(S(=O)(=O)c2ccccc2C(F)(F)F)cc1 [1-(pyridin-3-ylmethyl)-3-(4-{[2-(trifluoromethyl)benzene]sulfonyl}phenyl)urea] | 3 | 569 | – | –
O=C(NCc1cccnc1)Nc1ccc(S(=O)(=O)c2cccc(OC(F)(F)F)c2)cc1 [1-(pyridin-3-ylmethyl)-3-(4-{[3-(trifluoromethoxy)benzene]sulfonyl}phenyl)urea] | 1 | 83 | – | –
O=C(NCc1cccnc1)Nc1ccc(S(=O)(=O)c2ccc(OC(F)(F)F)cc2)cc1 [1-(pyridin-3-ylmethyl)-3-(4-{[4-(trifluoromethoxy)benzene]sulfonyl}phenyl)urea] | 5 | 420 | – | –
O=C(NCc1cccnc1)Nc1ccc(S(=O)(=O)c2ccc(C(F)(F)F)cc2)cc1 [1-(pyridin-3-ylmethyl)-3-(4-{[4-(trifluoromethyl)benzene]sulfonyl}phenyl)urea] | 9 | 604 | – | –
C[C@@H]1[C@H]2C[C@@H](C[C@H]1NS(=O)(=O)c1ccc(NC(=O)NCc3cccnc3)cc1)C2(C)C [1-(pyridin-3-ylmethyl)-3-(4-{[(1R,2R,3R,5S)-2,6,6-trimethylbicyclo[3.1.1]heptan-3-yl]sulfamoyl}phenyl)urea] | 80 | 91 | – | –
O=C(NCc1cccnc1)Nc1ccc(S(=O)(=O)n2cccc2)cc1 [1-(pyridin-3-ylmethyl)-3-[4-(1H-pyrrole-1-sulfonyl)phenyl]urea] | 19 | 1790 | – | –
CC1CCN(S(=O)(=O)c2ccc(NC(=O)NCc3cccnc3)cc2)CC(C)(C)C1 (stereo not drawn) [1-(pyridin-3-ylmethyl)-3-[4-(3,3,5-trimethylazepane-1-sulfonyl)phenyl]urea] | 2 | 9.2 | – | –
O=C(NCc1cccnc1)Nc1ccc(S(=O)(=O)C(F)(F)F)cc1 [1-(pyridin-3-ylmethyl)-3-[4-(trifluoromethane)sulfonylphenyl]urea] | 226 | 10000 | – | –
O=C(NCc1cccnc1)Nc1ccc(S(=O)(=O)N2CCCC(C(F)(F)F)C2)cc1 (stereo not drawn) [1-(pyridin-3-ylmethyl)-3-{4-[3-(trifluoromethyl)piperidine-1-sulfonyl]phenyl}urea] | 3 | 26 | – | –
O=C(NCc1cccnc1)Nc1ccc(S(=O)(=O)c2ccc(C(F)(F)F)nc2)cc1 [1-(pyridin-3-ylmethyl)-3-{4-[6-(trifluoromethyl)pyridine-3-sulfonyl]phenyl}urea] | 27.9 | 1000 to 10000 | – | –
Cc1cc(C)c(S(=O)(=O)c2ccc(NC(=O)NCc3cccnc3)cc2)c(C)c1 [1-(pyridin-3-ylmethyl)-3-{4-[(2,4,6-trimethylbenzene)sulfonyl]phenyl}urea] | 11 | > 1000 | – | –
NS(=O)(=O)c1cccc(S(=O)(=O)c2ccc(NC(=O)NCc3cccnc3)cc2)c1 [1-(pyridin-3-ylmethyl)-3-{4-[(3-sulfamoylbenzene)sulfonyl]phenyl}urea] | 3.8 | 100 to 1000 | – | –
O=C(NCc1cccnc1)Nc1ccc(S(=O)(=O)N2CCC[C@H](C(F)(F)F)C2)cc1 [1-(pyridin-3-ylmethyl)-3-{4-[(3S)-3-(trifluoromethyl)piperidine-1-sulfonyl]phenyl}urea] | 3 | 29 | – | –
O=C(NCc1cccnc1)Nc1ccc(S(=O)(=O)c2cccc3[nH]ccc23)cc1 [1-[4-(1H-indole-4-sulfonyl)phenyl]-3-(pyridin-3-ylmethyl)urea] | 1.6 | 13.4 | – | –
O=C(NCc1cccnc1)Nc1ccc(S(=O)(=O)c2cccc3cc[nH]c23)cc1 [1-[4-(1H-indole-7-sulfonyl)phenyl]-3-(pyridin-3-ylmethyl)urea] | 0.5 | 3.4 | – | –
O=C(NCc1cccnc1)Nc1ccc(S(=O)(=O)c2ccc3c(c2)OCCO3)cc1 [1-[4-(2,3-dihydro-1,4-benzodioxine-6-sulfonyl)phenyl]-3-(pyridin-3-ylmethyl)urea] | 1.1 | 100 to 1000 | – | –
O=C(NCc1cccnc1)Nc1ccc(S(=O)(=O)c2cccc3c2OCC3)cc1 [1-[4-(2,3-dihydro-1-benzofuran-7-sulfonyl)phenyl]-3-(pyridin-3-ylmethyl)urea] | 1.1 | 10.5 | – | –
CC1CCCC(C)N1S(=O)(=O)c1ccc(NC(=O)NCc2cccnc2)cc1 (stereo not drawn) [1-[4-(2,6-dimethylpiperidine-1-sulfonyl)phenyl]-3-(pyridin-3-ylmethyl)urea] | 11 | 164 | – | –
O=C(NCc1cccnc1)Nc1ccc(S(=O)(=O)c2cccc3c2OCO3)cc1 [1-[4-(2H-1,3-benzodioxole-4-sulfonyl)phenyl]-3-(pyridin-3-ylmethyl)urea] | 4.3 | 100 to 1000 | – | –
